Values of other authors, collected in patent US9532983B2, “Benzofuran compounds, compositions, kits and/or methods thereof” (Savannah State University, priority 2013, dated 2017).

Target: σ1 receptor (Homo sapiens, UniProt Q99720)
Settings: read-out: affinity for the σ1 receptor; Maurice et al.; cited from earlier work

σ1 receptor, sequence (Q99720 whole entry, species assumed): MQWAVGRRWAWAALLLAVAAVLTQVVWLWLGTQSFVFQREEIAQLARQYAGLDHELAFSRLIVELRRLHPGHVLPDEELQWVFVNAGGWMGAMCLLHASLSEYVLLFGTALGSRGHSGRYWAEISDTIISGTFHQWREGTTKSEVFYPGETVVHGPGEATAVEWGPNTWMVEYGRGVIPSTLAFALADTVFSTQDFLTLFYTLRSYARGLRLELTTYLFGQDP

Cc1ccc2c(c1)[C@]13CCCC[C@@H]1[C@H](C2)N(C)CC3 [dimemorfan]
Ki: 151 nM
